{
  "source": "patent US5607934A",
  "about": "“Piperazine derivatives and salts thereof” (Otsuka Pharmaceutical Co., Ltd., priority 1993, dated 1997)",
  "key": {"[1]": {"tested_on": "rat mesangial cell proliferation", "assay": "Inhibitory effects on rat mesangial cell proliferation (interleukin-1β induced 3H-thymidine incorporation)", "type": "cell-based, SD-strain rat", "conditions": "1 ng/ml interleukin-1β, read-out: Rate of inhibition; for inhibition at 3 µg/mL: concentration 3 μg/ml; for inhibition at 10 µg/mL: concentration 10 μg/ml", "procedure": "Inhibitory effects on rat mesangial cell proliferation\nThe kidney of SD-strain rat was aseptically taken out by excision. and the renal cortex was cut out therefrom. The renal glomeruli were isolated by use of sieve. The glomeruli were cultivated in RPMI1640 culture medium [which contains 10% of FBS (fetal bovine serum)] for 4 weeks. Thus obtained cells were used as mesangial cells.\nAn experiment of incorporation of thymidine by interleukin-1β was conducted by procedures according to the method of Ganz [Michael B. Ganz; Mary C. Perfetto and Walter F. Boron: American Journal of Physiology, Vol. 259, F269-F278, (1990)]. Thus, 2×10^4 cells/ml of mesangial cells were scattered on a 48-well plate (0.5 ml/well), and the cells were cultivated in RPMI culture medium (which contains 10% of FBS) for 3 days. Then, the culture medium was changed to another RPMI culture medium in which the concentration of FBS was decreased from 10% to 0.5% and cultivated for 3 days. Next, the RPMI culture medium (containing 0.5% of FBS) was changed to other RPMI culture medium to which the test compound and 1 ng/ml of interleukin-1β were added. The cultivation was conducted for 24 hours, then 1 μCi/well of 3H-thymidine was added to the culture medium, and the cultivation was continued for additional 24 hours.\nThe amount of ^3 H-thymidine being incorporated into the mesangial cells was measured by use of a scintillation counter, and the rate of inhibition (%) in comparison of the test group vs. control group was calculated by the following formula:\nRate of inhibition (%)=[(C-D)/(C-E)]×100\nC: the incorporated amount of ^3 H-thymidine in control group;\nD: the incorporated amount of ^3 H-thymidine in the case of that test compound was added;\nE: the incorporated amount of ^3 H-thymidine in the case of that interleukin-1β was not added."}, "[2]": {"tested_on": "passive Heymann nephritis of rat", "assay": "Inhibitory effect against increase of urinary proteins in the passive Heymann nephritis of rat", "type": "in vivo, SD-strain male rats", "conditions": "oral, once a day for 7 days, urinary protein, 12th day", "procedure": "Inhibitory effect against increase of urinary proteins in the passive Heymann nephritis of rat\nSD-strain male rats (7 week old, body weight: 200-230 g)were used as test animals.\nAn antiserum which will induce passive Heymann nephritis of rat was prepared by procedures according to the method of T. S. Edington, et al. [T. S. Edington, R. J. Glassock and F. J. Dixon: Autologous immune complex nephritis induced with renal tublar antigen. I. Identification and isolation of the pathogenetic antigen. Journal of Experimental Medicine Vol. 127, pp. 555-572 (1968).] as follows:\nAt the first, an antigen (FX1A fraction) of the renaltublar brush border was sampled from the SD rat. Next, the antigen was admixed with Freund' complete adjuvant, then a New Zealand White rabbit was sensitized therewith. The sensitization procedures were conducted 3 times in every 2 weeks, and 2 weeks after the final sensitization, the blood sample was obtained from the rabbit. […]\nHeymann nephritis of the rats were induced by injecting the above-mentionedantiserum to the tail vein of the test rats. […] The urine samples of the rat were taken in time sequentially from the 10th day after the injection, and the amount of urinary protein in the samples were determined. The rate of inhibitory effect (%) against the production of urinary protein performed by the test compound was calculated by the formula as follows: […]"}, "[3]": {"tested_on": "releasing of hydrogen peroxide (H2 O2) from the neutrocyte of abdominal cavity of rat", "assay": "Inhibitory effect against the releasing of hydrogen peroxide (H2O2) from the neutrocyte of abdominal cavity of rat", "type": "cell-based, SD-strain rat", "conditions": "rat neutrocytes 10^6 cells/ml; FMLP 2×10^-6 M; 37° C., 1 hour; OD610", "procedure": "Inhibitory effect against the releasing of hydrogen peroxide (H2 O2) from the neutrocyte of abdominal cavity of rat\n1%-Casein solution was administered to the abdominal cavity of a SD-strain rat, then 16 hours after the administration, the neutrocytes were obtained by washing the abdominal cavity. Thus obtained neutrocytes were washed with Hank's solution.\nIn to a reaction mixture consisting of the following ingredients:\n______________________________________\nHRP (Horse Radish peroxide)\nHEPES [N-(2-Hydroxyethyl)pipera-\nzine N'-2-ethanesulfonic acid]\nRat neutrocytes 10^6 cells/ml\nthe test compound was added, then the whole mixture was incubated at 37° C. for 1 hour, and the mixture was subjected to a centrifugal separation at 2,000 rpm for minutes. After the centrifugal separation, 1 ml of the supernatant was sampled and 10 μl of 1N-NaOH aqueous solution was added thereto. Then, the optical absorbance at 610 nm (OD610) of the supernatant was determined by means of using a spectro-photometer.\nThe IC50 (50% inhibitory concentration) of the test compound was obtained by calculating as the ratio of OD610 of the test group sample to that of the control group sample."}, "[4]": {"tested_on": "superoxide radicals (O2^-) released from the peritoneal macrophage cells of guinea pig", "assay": "Inhibitory effect against superoxide radicals (O2^-) released from the peritoneal macrophage cells of guinea pig by stimulation (FMLP)", "type": "cell-based", "conditions": "Cavia porcellus, Peritoneal macrophage cell; guinea pig peritoneal macrophages 2×10^6 cells/ml; FMLP 10^-7 M; cytochrome C reduction, OD550", "procedure": "Inhibitory effect against superoxide radicals (O2^-) released from the peritoneal macrophage cells of guinea pig by stimulation:\nMineral oil (15 ml)was intraperitoneally administered to a guinea pig, then 96 hours after the administration, the peritoneal macrophage cells were sampled.\nSuperoxide radicals (O2^-) were determined by means of reduction of cytochrome C method according to the procedure described in an article written by T. Matsumoto, K. Takeshige and S. Minakami: Biochemical and Biophysical Research Communications, Vol. 88, No. 3, pp. 974-979, (1979).\nInto 1 ml of 80 μM-cytochrome C solution, the peritoneal macrophage cells were added to make the final concentration of 2×10^6 cells/ml, then each one of the test compounds of the present invention was added thereto to make the test group sample. On the other hand, water was added in place of the test compound of the present invention to make the control group sample. Each of the test group samples and the control group samples were subjected to pre-incubation at 37° C. for 1 minute.\nAs to the stimulating agent for releasing superoxide radicals (O2^-), FMLP (formylmethionyl leucyl phenylalanine)was added to each one of the test sample solutions and the control group samples to make the final concentration of FMLP to 10^-7 M, then the sample solutions were subjected to additional reaction by incubation for 1 minute.\nDifference between the optical absorbances measured at 550 nm (OD550) of both test group samples and control group samples were determined, the 50% inhibitory concentration (IC50) was obtained by calculating as the ratio of OD550 of the test group sample to that of the control group sample."}},
  "data": [
    {"smiles": "CCOC(=O)C[C@@H]1NC(=O)[C@@H](Cc2c[nH]c3ccccc23)N(O)C1=O", "note": "[Example 57]", "values": [
      {"measurement": "inhibition at 3 µg/mL", "setting": "[1]", "result": "26.3 ± 5.8", "unit": "%"},
      {"measurement": "inhibition at 10 µg/mL", "setting": "[1]", "result": "56.7 ± 2.9", "unit": "%"},
      {"measurement": "Rate of inhibitory effect", "setting": "[2]; 5 mg/kg/day", "result": "53.1 ± 15.1", "unit": "%"},
      {"measurement": "IC50", "setting": "[3]", "result": 3, "unit": "µg/mL"}
    ]},
    {"smiles": "CC(C)C[C@@H]1C(=O)N[C@H](Cc2cc(C(C)(C)C)c(O)c(C(C)(C)C)c2)C(=O)N1O", "note": "(racemic) [Example 13, (3RS,6RS)-3-(3,5-di-tert-butyl-4-hydroxybenzyl)-1-hydroxy-6-isobutylpiperazine-2,5-dione]", "values": [
      {"measurement": "inhibition at 3 µg/mL", "setting": "[1]", "result": "77.9 ± 8.3", "unit": "%"},
      {"measurement": "inhibition at 10 µg/mL", "setting": "[1]", "result": "122 ± 6.1", "unit": "%"},
      {"measurement": "IC50", "setting": "[4]", "result": 1.3, "unit": "µg/mL"},
      {"measurement": "Rate of inhibitory effect", "setting": "[2]; 20 mg/kg/day", "result": "57.8 ± 6.1", "unit": "%"},
      {"measurement": "IC50", "setting": "[3]", "result": "< 5", "unit": "µg/mL"}
    ]}
  ]
}
